This is an account of results in patent publication US20240174690A1, “ANNULATED 2-AMINO-3-CYANO THIOPHENES AND DERIVATIVES FOR THE TREATMENT OF CANCER” (BOEHRINGER INGELHEIM INTERNATIONAL GMBH, priority 2021, published 2024).

Series [1] concerns SK-CO-1 cells. The series can be described thus: SK-CO-1 CTG proliferation assay (120 h) (CRC, G12V). It counts as cell-based. Particulars: Homo sapiens; SK-CO-1 cells (CRC, G12V), CTG 120 h. In a few lines:
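Compound exposure lasted 120 h in KRAS G12V SK-CO-1 cells seeded overnight at 500 cells/well in 10% FCS EMEM. CellTiter-Glo RLU normalised to DMSO wells gave percent viability, and a four-parameter model fit yielded IC50.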

A short description of series [2]: Caco-2 assay (permeability PappAB, PappBA, efflux ratio). Particulars: human, Caco-2, 10 μM test compound, pH 7.4; for efflux ratio at 90 min, 10 μM: efflux ratio PappBA/PappAB, read-out: Caco ER. It counts as in vitro ADME. In a few lines: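 Bidirectional permeability (apical-to-basolateral and reverse) through polarized Caco-2 monolayers, BSA 0.25% on each side, 37 °C. Donor and receiver sampled at 0-90 min after 25-30 min preincubation, analysed by HPLC/MS/MS. Apparent permeabilities derived from transfer rate normalised to area and t=0 donor concentration; ER taken as PappBA over PappAB.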
(Caco-2 cells form a polarised layer with tight junctions and transporters.)

The test system of series [3] is KRAS G12V-dependent Ba/F3 cells. Briefly: Ba/F3 proliferation assay, KRAS G12V.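 Note: proliferation IC50 in KRAS G12V-dependent Ba/F3 cells read by AlamarBlue.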 In kind it is cell-based. Particulars: Mus musculus, BaF3, 72 h, AlamarBlue. The method, boiled down: (§1)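 Proliferation of mutant-KRAS-driven Ba/F3 cells cultured without IL-3 is followed with AlamarBlue after compound addition. Curves are fitted from duplicate wells.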
On the technique in general: The colour change of resazurin is a common sign of viable cells or microbes.

The test system of series [4] is KRAS G12C-dependent Ba/F3 cells. Briefly: Ba/F3 proliferation assay, KRAS G12C. In kind it is cell-based. Particulars: Mus musculus, BaF3, 72 h, AlamarBlue. The method, boiled down:
as §1

Series [5] can be described thus: Metabolic (microsomal) stability assay, human liver microsomes (HLM). It counts as in vitro ADME. Particulars: predicted clearance as percent of liver blood flow, 1 μM. The method, boiled down: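 LC-MS/MS tracked parent disappearance at 0, 5, 15, 30 and 60 min in NADPH-initiated incubations with 1 mg/mL human microsomal protein and 1 μM compound at 37°C, pH 7.5. First-order fits gave intrinsic clearance, which was scaled up and reported as % QH. NADPH-free controls were also run.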

pIC50: −log10 of the molar value.

For `C[C@H](Oc1cc(-n2cncc3ccnc2-3)nc(-c2onc3c2CCC[C@@]32CCCc3sc(N)c(C#N)c32)n1)[C@@H]1CCCN1C` [I-14], the values for the pIC50 in series [1], in series [3] and in series [4] were 7.15, 8.15 and 7.82, respectively. In series [2], the efflux ratio at 90 min, 10 μM worked out at 0.8.

Turning to `C[C@H]1CNCCCN1c1nc(-c2onc3c2CCC[C@@]32CCCc3sc(N)c(C#N)c32)cc(C(F)(F)F)n1` [I-15], in series [5], the “HLM QH” value is 38%. Further, the pIC50 in series [4] was 6.03.

For the molecule `C[C@H](Oc1cc(-c2cn(C)nn2)nc(-c2onc3c2CCC[C@@]32CCCc3sc(N)c(C#N)c32)n1)[C@@H]1CCCN1C` [I-16], the “HLM QH” value in series [5] was 31%. Also, the pIC50 in series [3] is 8.05; in series [4], 7.68.

Take `CO[C@@H]1C[C@@H]([C@H](C)Oc2cc(-c3cnn(C)n3)nc(-c3onc4c3CCC[C@@]43CCCc4sc(N)c(C#N)c43)n2)N(C)C1` [I-17]: the “HLM QH” value in series [5] is reported as 56%. Also, the pIC50 in series [1] is 6.45; in series [3], 7.64; in series [4], 7.40.

As for `C[C@H](Oc1cc(N2Cc3cnn(C)c3C2)nc(-c2onc3c2CCC[C@@]32CCCc3sc(N)c(C#N)c32)n1)[C@@H]1CCCN1C` [I-19], the “HLM QH” value in series [5] is listed as below 24%. For the same molecule, the figures for the pIC50 in series [1], in series [3] and in series [4] were 7.25, 7.64 and 7.12, respectively.

With `C[C@H](Oc1cc(-c2ccn(Cc3ncco3)n2)nc(-c2noc3c2CCC[C@@]32CCCc3sc(N)c(C#N)c32)n1)[C@@H]1CCCN1C` [II-128], the “HLM QH” value in series [5] is below 24%. Also, the results for the pIC50 in series [1], in series [3] and in series [4] were 7.33, 7.51 and 8.00, respectively.

Consider `C[C@H](Oc1cc(-c2cccc(C(N)=O)c2)nc(-c2noc3c2CCC[C@@]32CCCc3sc(N)c(C#N)c32)n1)[C@@H]1CCCN1C` [II-133], for which the “HLM QH” value in series [5] is below 24%. Moreover, the pIC50 was 7.05 in series [1], 7.72 in series [3] and 7.48 in series [4].

For `C[C@H]1CNCCCN1c1cc(-c2ccn(C)n2)nc(-c2noc3c2CCC[C@@]32CCCc3sc(N)c(C#N)c32)n1` [II-140], in series [5], the “HLM QH” value is below 24%. Further, the figures for the pIC50 in series [1] and in series [4] were 6.53 and 5.99, respectively.

On to `C[C@H]1CNCCCN1c1cc(-n2ccnc2)nc(-c2noc3c2CCC[C@@]32CCCc3sc(N)c(C#N)c32)n1` [II-142], for which the values for the pIC50 in series [1], in series [3] and in series [4] were 5.66, 5.75 and 5.66, respectively.

With `C[C@H](Oc1cc(-c2ccn(C)n2)nc(-c2noc3c2CCC[C@@]32CCCc3sc(N)c(C#N)c32)n1)[C@@H]1C[C@H](F)CN1C` [II-144], the “HLM QH” value in series [5] was 75%. In addition, the pIC50 was 6.89 in series [1] and 8.70 in series [4]. Further, the Papp A→B at 90 min, 10 μM in series [2] (apical to basolateral) worked out at 15 ×10⁻⁶ cm/s. Also, the efflux ratio at 90 min, 10 μM in series [2] is 0.7.

In the case of `C[C@H](Oc1cc(-n2cc3c(n2)CNC3)nc(-c2noc3c2CCC[C@@]32CCCc3sc(N)c(C#N)c32)n1)[C@@H]1C[C@@H](F)CN1C` [II-154], the “HLM QH” value in series [5] was 76%. The pIC50 in series [1] is 5.67; in series [3], 6.87; in series [4] it was 6.61.

Take `COc1c(O[C@@H](C)[C@@H]2CCCN2C)nc(-c2noc3c2CCC[C@@]32CCCc3sc(N)c(C#N)c32)nc1-n1ccc(C(N)=O)n1` [II-159]: the “HLM QH” value in series [5] was 40%. Also, the values for the pIC50 in series [1], in series [3] and in series [4] were 6.88, 7.03 and 6.83, respectively.

As for `C[C@H](Oc1cc(N2CC3COCC(C2)N3)nc(-c2noc3c2CCC[C@@]32CCCc3sc(N)c(C#N)c32)n1)[C@@H]1CCCN1C` [II-160], in series [5], the “HLM QH” value is listed as 31%. The pIC50 in series [1] was 5.16; in series [3] it was 5.70; in series [4], 5.76.

Regarding `C[C@H](Oc1cc([C@H]2CCNC2)nc(-c2noc3c2CCC[C@@]32CCCc3sc(N)c(C#N)c32)n1)[C@@H]1CCCN1C` [II-163], the pIC50 is 6.19 in series [1], 6.49 in series [3] and 6.43 in series [4].

As a reminder, the pIC50 is −log10 of the IC50, conventionally taken in molar units. Usually Papp A→B stands for the apparent permeability from the apical to the basolateral side of a cell layer.
